Test results: the supplement of paper PMC10307832

Tests used:
Assay in all cases: relative viability (nuclei count vs DMSO), 5 days (fraction); higher = more cells survive
[1] = compound: C#Cc1cccc(Nc2ncnc3cc(OCCOC)c(OCCOC)cc23)c1 [Erlotinib] + Cc1nc(NC(=O)N2CCC[C@H]2C(N)=O)sc1-c1ccnc(C(C)(C)C(F)(F)F)c1 [Alpelisib] (partner 2 µM)
In short: (§1)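 Five library-drug doses in √10 steps were combined with a fixed anchor-drug dose, or a single drug was given alone, by pin tool to lung cancer cell lines in 1536-well plates the day after seeding. Nuclei were stained and counted after 5 days. Relative viability is the nuclei count in treated wells over that in vehicle wells, taken as the median of duplicate plates.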

[2] = compound: O=C(Nc1c[nH]nc1-c1nc2ccc(CN3CCOCC3)cc2[nH]1)NC1CC1 [AT9283] + COc1cc2c(Oc3ccc(NC(=O)C4(C(=O)Nc5ccc(F)cc5)CC4)cc3F)ccnc2cc1OCCCN1CCOCC1 [Foretinib] (partner 0.25 µM)
In short: as §1

[3] = compound: O=C(Nc1c[nH]nc1-c1nc2ccc(CN3CCOCC3)cc2[nH]1)NC1CC1 [AT9283] + NC(=O)Nc1cc(-c2cccc(F)c2)sc1C(=O)N[C@H]1CCCNC1 [AZD7762] (partner 0.2 µM)
In short: as §1

[4] = compound: O=C(Nc1c[nH]nc1-c1nc2ccc(CN3CCOCC3)cc2[nH]1)NC1CC1 [AT9283] + Nc1nc2[nH]cc(CCc3ccc(C(=O)N[C@@H](CCC(=O)O)C(=O)O)cc3)c2c(=O)[nH]1 [Pemetrexed] (partner 0.2 µM)
In short: as §1

[5] = compound: O=C(Nc1c[nH]nc1-c1nc2ccc(CN3CCOCC3)cc2[nH]1)NC1CC1 [AT9283] + O=C(CCCCCCC(=O)Nc1ccccc1)NO [Vorinostat] (partner 1 µM)
In short: as §1

Cell Line	relative viability ([1]; first compound 0.02 µM)	relative viability ([1]; first compound 0.2 µM)	relative viability ([1]; first compound 0.6325 µM)	relative viability ([1]; first compound 2 µM)	relative viability ([2]; first compound 0.003 µM)	relative viability ([2]; first compound 0.03 µM)	relative viability ([2]; first compound 0.09487 µM)	relative viability ([2]; first compound 0.3 µM)	relative viability ([3]; first compound 0.003 µM)	relative viability ([3]; first compound 0.03 µM)	relative viability ([3]; first compound 0.09487 µM)	relative viability ([3]; first compound 0.3 µM)	relative viability ([4]; first compound 0.003 µM)	relative viability ([4]; first compound 0.03 µM)	relative viability ([4]; first compound 0.09487 µM)	relative viability ([4]; first compound 0.3 µM)	relative viability ([5]; first compound 0.003 µM)	relative viability ([5]; first compound 0.03 µM)	relative viability ([5]; first compound 0.09487 µM)	relative viability ([5]; first compound 0.3 µM)
NCI-H2405	0.853	0.772	0.822	0.698	1.05	0.82	0.352	0.312	0.771	0.566	0.208	0.163	0.995	0.977	0.324	0.22	0.959	0.576	0.3	0.24
NCI-H3122	–	0.882	0.872	0.736	0.803	0.852	0.284	0.0779	0.958	0.917	0.363	0.17	0.2	0.191	0.176	0.123	0.851	0.978	0.598	0.138
PC-3 [JPC-3]	0.799	0.368	0.352	0.323	1	0.974	0.591	0.543	0.826	0.741	0.609	0.394	0.966	1.06	0.717	0.568	0.562	0.694	0.526	0.46
PC-14	0.562	0.133	0.171	0.112	0.956	0.796	0.581	0.16	0.341	0.371	0.206	0.0832	0.145	0.0954	0.0681	0.0563	0.79	0.17	0.107	0.114
RERF-LC-KJ	0.877	0.666	0.613	0.469	0.922	0.498	0.279	0.22	0.836	0.578	0.387	0.243	0.465	0.36	0.253	0.225	0.636	0.473	0.346	0.264
